Laboratory results: patent US20210371491A1, “CHIMERIC ANTIGEN RECEPTORS THAT BIND TO PROSTATE SPECIFIC MEMBRANE ANTIGEN” (Albert-Ludwigs-Universitaet Freiburg, priority 2018, published 2021)
Where “and” joins values, the source holds several entries; their conditions need not be identical. Identical values can stand only once.

System: C4-2^luc+ tumor xenografts
Test: Treatment of C4-2^luc+ tumor xenografts by docetaxel chemotherapy plus intravenous CAR T cells (Example 12)
Type: in vivo, mice
Procedure: (A) Schematic of combined chemotherapy with intravenous CAR T cell therapy. Tumor engraftment was established in animals by subcutaneous injection of 1.5×10^6 cells. Chemotherapy had started at day 1 of the treatment for 3 days by intraperitoneal injection of docetaxel (DOC, 6 mg/kg bw). 48 hours after the last chemotherapy cycle, mice were injected intravenously with single doses of 5×10^6 CAR28 (n=3) or CAR41 T cells (n=3). Control mice were injected with docetaxel alone (n=3) or left untreated (control, n=4). Tumors were visualized via BLI until the end of treatment at day 17. D, day; i.v, intravenous injection; i.p, intraperitoneal; s.c, subcutaneous.
(B) Antitumor activity of CAR28 and CAR41 T cells in combination with docetaxel chemotherapy. Mice with subcutaneously growing C4-2^luc+ tumors (200-250 mm^3) were intraperitoneally injected with docetaxel (DOC; 6 mg/kg bw) on days 1, 2, and 3 of treatment. 48 hours later mice were additionally injected with a single dose of 5×10^6 CAR28 (n=3) or CAR41 T cells (n=3) intravenously. Tumor growth was monitored by BLI. […] Statistical significant differences are indicated by *p<0.05.
Mice with large C4-2^luc+ tumor xenografts (200-250 mm^3) were intraperitoneally injected with 3 daily cycles of docetaxel (DOC, 6 mg/kg bw on days 1, 2, and 3 of treatment) (FIG. 9A). 48 hours after the last cycle, mice were intravenously injected with only one dose of 5×10^6 CAR28 (n=3) CAR41 T cells (n=3), or PBS (n=3) respectively (FIG. 9A). Control animals (n=4) remained completely untreated. Tumor growth was monitored by BLI as described above. […] Compared to the control group (1817.5±165.5 mm^3) tumor end volumes of 338.2±355.6 mm^3 for mice treated with DOC alone and of 599.9±317.2 mm^3 for mice treated with DOC+CAR28 were reached on day 17 (FIG. 9C). […] A mean tumor volume of 50.2±71.0 mm^3 was determined (FIG. 9C).

**Q.** What does the source list for `CC(=O)O[C@@]12CO[C@@H]1C[C@H](O)[C@@]1(C)C(=O)[C@H](O)C3=C(C)[C@@H](OC(=O)[C@H](O)[C@@H](NC(=O)OC(C)(C)C)c4ccccc4)C[C@@](O)([C@@H](OC(=O)c4ccccc4)[C@H]21)C3(C)C` [DOC, docetaxel]?
**A.** tumor growth compared to control group (in words) (DOC 6 mg/kg bw days 1-3 ± CAR T cells i.v.): inhibition of tumor growth; partial remission (PR), mice (DOC 6 mg/kg bw i.p. days 1-3, CAR T cells 5×10^6 i.v. 48 h later, tumors 200-250 mm^3): ⅔; mean tumor volume (day 17, DOC 6 mg/kg bw days 1-3 ± CAR T cells i.v.): 338.2±355.6 mm^3 and 338.3±355.6 mm^3
